ChEMBL document CHEMBL5608211, “Antibody-drug conjugates for targeted cancer therapy: Recent advances in potential payloads” (Eur J Med Chem, 2024)
In brackets after ≈: the same amount, converted by molar mass.

Legend:
Type in all cases: functional, cell-based
[1] = Cytotoxicity against human KPL-4 cells assessed as inhibition of cell growth incubated for 3 days by CellTiter-Glo luminescent assay; conditions: KPL4, 72 h
T47D = test: Cytotoxicity against human T47D cells
SK-BR-3 = test: Cytotoxicity against human SK-BR-3 cells incubated for 144 hrs by CellTiter-Glo luminescent assay; conditions: SK-BR-3, 144 h
LoVo = test: Cytotoxicity against human LoVo cells assessed as inhibition of cell growth incubated for 72 hrs by Promega CellTiter-Glo assay
MOLT-4 = test: Cytotoxicity against human MOLT-4 cells assessed as inhibition of cell growth incubated for 72 hrs by XTT assay; conditions: MOLT-4, 72 h

C=C1C[C@H]2C=Nc3cc(OCCCCCOc4cc5c(cc4OC)C(=O)N4CC(=C)C[C@H]4C(O)N5C(=O)OCc4ccc(SSC(C)(C)C)cc4)c(OC)cc3C(=O)N2C1 (stereo not given in full)
IC50 [1]: 6.3 ng/mL (≈ 7.35 nM)

CC[C@H](C)[C@@H]1NC(=O)CNC(=O)[C@H]2CC(=O)[C@H]([C@@H](C)[C@@H](O)CO)NC(=O)[C@@H]3C[C@@H](O)CN3C(=O)[C@H](CC(=O)O)NC(=O)[C@H](C[S+]([O-])c3[nH]c4cc(O)ccc4c3C2)NC(=O)CNC1=O (stereo not given in full)
IC50 (T47D): ~500 nM

Cc1cccc2c(O)cc3c(c12)[C@H](CCl)CN3C(=O)c1cn2cc(NC(=O)c3ccc(O)cc3)ccc2n1
IC50 (SK-BR-3): 0.09 nM

CC(C)(C)[C@H](c1cc(-c2cc(F)ccc2F)cn1Cc1ccccc1)N(CCCN)C(=O)CO
IC50 (LoVo): < 0.03 nM

CCN(C(C)=O)[C@H]1CO[C@@H](O[C@H]2[C@H](O[C@H]3C#C/C=C\C#C[C@]4(O)CC(=O)C(NC(=O)OC)=C3/C4=C\CSC(C)=O)O[C@H](C)[C@@H](NO[C@H]3C[C@H](O)[C@H](SC(=O)c4c(C)c(I)c(O[C@@H]5O[C@@H](C)[C@H](O)[C@@H](OC)[C@H]5O)c(OC)c4OC)[C@@H](C)O3)[C@@H]2O)C[C@@H]1OC
IC50 (MOLT-4): 0.15 pM
